Results as given in patent US20120245346A1, “MALEIC ACID SALT AND CRYSTAL THEREOF” (Kyorin Pharmaceutical Co., Ltd., priority 2009, published 2012).
Structures can show the parent of a compound that is named as a salt. Where two headings read alike, the source gives them in different places.

Assays:
Format in all cases: physicochemical
[1] = Adhesion water by thermal analysis TG-DTA (Test Example 1, Stage 2); details: for ADHESION WATER: decrease (%) in TG-DTA chart at about 50° C., Stage 2; for adhesion water (in words): TG-DTA decrease (%) at about 50° C.
Method: (§1) A sample (5 mg) was placed in a sample pan (a container made of aluminum), and thermal analysis TG-DTA of the sample was performed using EXSTAR 6000 thermal analyzer manufactured by Seiko Instruments Inc.
(§2) As the monomaleic acid salt, the sample in Example 5 was used in Stage 1 of Table 2, and the sample in Example 1 was used in Stage 2. The other samples in respective Stages of Table 2 were prepared in accordance with Patent Literature 1. The solubility and the stability as a drug substance of the respective samples were examined in Stage 1, and the crystallinity, phenomenon of crystal polymorphism, and presence or absence of adhesion water were examined in Stage 2.
Adhesion water: When decrease (%) in the chart obtained from the thermal analysis TG-DTA is seen at about 50° C., the adhesion water is represented as “Presence,” and when the decrease (%) is not seen, the adhesion water is represented as “None.”

[2] = Solubility in water (Test Example 1, Stage 1)
Method: as §2
Solubility: When the ratio of dissolved sample to water is 10 mg/mL or more, the solubility of the sample is represented as circle (◯), and when the ratio is 10 mg/mL or less, the solubility is represented as cross mark (x).

[3] = Stability as a drug substance, 2-week storage, HPLC assay of mainly degradation product (Test Example 1, Stage 1); details: 2-week storage at 25° C./75% RT (closed system), increase in HPLC area % of mainly degradation product
Method: as §2
Stability as a drug substance: The sample after 2-week storage at 25° C./75% RT (closed system) was assayed by high-performance liquid chromatography (HPLC) under conditions described below. When the increase in area percentage (%) of a mainly degradation product is less than +0.5%, the stability of drug substances is represented as circle (◯), and when the increase is +0.5% or more, the stability of drug substances is represented as cross mark (x). In Test Example 2, the mainly degradation product was assayed by HPLC under the same conditions.
Conditions of HPLC in test of stability as a drug substance
column: Atlantis dC18, 2.1 mm φ×15 cm, 3 μm Measurement wavelength: 254 nm column temperature: 40° C. Flow rate: 0.2 mL/min Mobile phase A: 0.05% formic acid aqueous solution Mobile phase B: 0.05% formic acid-acetonitrile solution Transfer of mobile phases: The mixed ratio of mobile phase A and mobile phase B is changed as shown in Table 1 to control the concentration gradient.

[4] = Development of crystal polymorphism by TG-DTA and powder x-ray diffraction (Test Example 1, Stage 2); details: TG-DTA versus powder x-ray diffraction
Method: as §1
(§3) A sample (about 100 mg) was (lightly) pulverized in an agate mortar, and a packed section of a sample flat holder made of glass was filled with the pulverized sample. Powder x-ray diffraction of the sample was then performed using RINT2200 powder x-ray diffractometer (Rigaku Corporation).
as §2
Development of crystal polymorphism: For crystals of the same salt, when the crystal structure shown by the thermal analysis TG-DTA is different from that shown by the powder x-ray diffraction, the development of crystal polymorphism is represented as “Presence”. On the other hand, when the thermal analysis TG-DTA and the powder x-ray diffraction show the same crystal structure, the development of crystal polymorphism is represented as “None.”

[5] = Crystallinity by powder x-ray diffraction (Test Example 1, Stage 2); details: for CRYSTALLINITY: powder x-ray diffraction peak intensity, Stage 2; for crystallinity (in words): powder x-ray diffraction
Method: as §3, §2
Crystallinity: In powder x-ray diffraction, when a peak intensity is 5000 cps or more, the crystallinity is represented as “High,” and when it is 5000 cps or less, the crystallinity is represented as “Low.”

[6] = ratio of dissolved sample to water, Stage 1

Compound | ADHESION WATER [1] | SOLUBILITY [2, 6] | STABILITY AS DRUG SUBSTANCE [3] | PHENOMENON OF CRYSTAL POLYMORPHISM [4] | CRYSTALLINITY [5] | adhesion water (in words) [1] | crystallinity (in words) [5] | also measured
CCc1cc(OC)cc2nc(-c3cccnc3N3CC[C@H](N(C)C)C3)oc(=O)c12 [DIHYDROCHLORIDE, 2-[2-((S)-3-dimethylaminopyrrolidin-1-yl)pyridin-3-yl]-5-ethyl-7-methoxy-4H-benz[d][1,3]oxazin-4-one] | PRESENCE | ∘ | x (when the increase is +0.5% or more) | – | – | – | – | solubility in water ([2]; water): ≥ 10000 µg/mL
CCc1cc(OC)cc2nc(-c3cccnc3N3CC[C@H](N(C)C)C3)oc(=O)c12 [FREE FORM, 2-[2-((S)-3-dimethylaminopyrrolidin-1-yl)pyridin-3-yl]-5-ethyl-7-methoxy-4H-benz[d][1,3]oxazin-4-one] | – | x (when the ratio is 10 mg/mL or less) | ∘ | AMORPHOUS | LOW | – | – | solubility in water ([2]; water, listed as free base): ≤ 2000 µg/mL
CCc1cc(OC)cc2nc(-c3cccnc3N3CC[C@H](N(C)C)C3)oc(=O)c12.Cl.O [MONOHYDROCHLORIDE, 2-[2-((S)-3-dimethylaminopyrrolidin-1-yl)pyridin-3-yl]-5-ethyl-7-methoxy-4H-benz[d][1,3]oxazin-4-one hydrochloride monohydrate] | PRESENCE | ∘ | ∘ | PRESENCE | LOW | adhesion water was present | low crystallinity and high amorphous content | SOLUBILITY ([2]; water, read-out: solubility in water): ≥ 10000 µg/mL
CCc1cc(OC)cc2nc(-c3cccnc3N3CC[C@H](N(C)C)C3)oc(=O)c12 [MONOMALEIC ACID, 2-[2-((S)-3-dimethylaminopyrrolidin-1-yl)pyridin-3-yl]-5-ethyl-7-methoxy-4H-benz[d][1,3]oxazin-4-one monomaleate] | – | – | – | – | – | adhesion water was not present | high crystallinity | ADHESION WATER ([1]; monomaleate): NONE; PHENOMENON OF CRYSTAL POLYMORPHISM ([4]; monomaleate): PRESENCE; CRYSTALLINITY ([5]; monomaleate): HIGH; SOLUBILITY ([2]; ratio of dissolved sample to water, Stage 1, monomaleate): ∘; solubility in water ([2]; water, listed as monomaleic acid salt, monomaleate): ≥ 10000 µg/mL; STABILITY AS DRUG SUBSTANCE ([3]; monomaleate): ∘
CCc1cc(OC)cc2nc(-c3cccnc3N3CC[C@H](N(C)C)C3)oc(=O)c12 [½D-TARTARIC ACID, 2-[2-((S)-3-dimethylaminopyrrolidin-1-yl)pyridin-3-yl]-5-ethyl-7-methoxy-4H-benz[d][1,3]oxazin-4-one] | PRESENCE | ∘ | x (when the increase is +0.5% or more) | – | – | – | – | solubility in water ([2]; water, listed as 1/2D-tartaric acid salt): ≥ 10000 µg/mL
CCc1cc(OC)cc2nc(-c3cccnc3N3CC[C@H](N(C)C)C3)oc(=O)c12 [¾L-TARTARIC ACID, 2-[2-((S)-3-dimethylaminopyrrolidin-1-yl)pyridin-3-yl]-5-ethyl-7-methoxy-4H-benz[d][1,3]oxazin-4-one] | PRESENCE | – | ∘ | – | – | – | – | SOLUBILITY ([2]; water, ratio of dissolved sample to water, Stage 1, read-out: SOLUBILITY): ≤ 10000 µg/mL
